Data: ChEMBL document CHEMBL3351645, “Design and synthesis of γ-butyrolactone derivatives as potential spermicidal agents” (Bioorg Med Chem Lett, 2014)
Calls of active or inactive are those of the source. The rule behind the calls is not given here.

Experiments:
Spermatozoa [1] = test: Spermicidal activity in human semen assessed as induction of spermatozoa immotility by Sander-Cramer method; assay type: functional
Spermatozoa [2] = test: Spermicidal activity in human semen assessed as induction of spermatozoa immotility at 0.1% w/v by Sander-Cramer method; assay type: functional, cell-based
HeLa = test: Cytotoxicity against human HeLa cells; assay type: cell-based
Spermatozoa [3] = test: Spermicidal activity in human semen assessed as induction of spermatozoa immotility at <0.1% w/v by Sander-Cramer method; assay type: functional
Spermatozoa [4] = test: Inhibition of free thiols level in human semen derived spermatozoa at 1% incubated for 15 mins by monobromobimane dye based fluorescence microscopy; assay type: functional, cell-based

In the case of `CN(C)c1ccc(/C=C/C(=O)C2CCOC2=O)cc1` (stereo unspecified), the MEC (Spermatozoa [1]) is reported as “inactive” and the Activity (Spermatozoa [2]) is reported as “inactive”.

`CCN(CC)CCC1(C(=O)/C=C/c2ccc(O)c(OC)c2)CCOC1=O` (stereo unspecified) was tested, and the Activity (Spermatozoa [2]) was “inactive”.

For `O=C(/C=C/c1ccc(O)cc1)C1(CCN2CCOCC2)CCOC1=O.O=C(O)C(O)C(O)C(=O)O` (stereo unspecified), the IC50 (HeLa) was 961 µg/mL, the MEC (Spermatozoa [3]) was 0.05% and the inhibition (Spermatozoa [4]) was “Active”. The MEC (Spermatozoa [1]) was 0.05%.

With `CC(=O)C1(CCN2CCCC2)CCOC1=O` (stereo unspecified) the MEC (Spermatozoa [1]) was “inactive”.

With `O=C(/C=C/c1ccc(O)cc1)C1(CCN2CCCC2)CCOC1=O` (stereo unspecified) the Activity (Spermatozoa [2]) was “inactive”.

In the case of `COc1cc(/C=C/C(=O)C2(CCN3CCOCC3)CCOC2=O)ccc1O.O=C(O)C(O)C(O)C(=O)O` (stereo unspecified), the IC50 (HeLa) is reported as 848 µg/mL, the MEC (Spermatozoa [3]) is reported as 0.1% and the MEC (Spermatozoa [1]) is reported as 0.5%.

Compound `CN(C)c1ccc(/C=C/C(=O)C2(CCN3CCOCC3)CCOC2=O)cc1.O=C(O)C(O)C(O)C(=O)O` (stereo unspecified) has an IC50 (HeLa) of 1330 µg/mL, an MEC (Spermatozoa [3]) of 0.5% and an MEC (Spermatozoa [1]) of 0.5%.

In the case of `CN(C)CCCC1(C(=O)/C=C/c2ccc(N(C)C)cc2)CCOC1=O.O=C(O)C(O)C(O)C(=O)O` (stereo unspecified), the IC50 (HeLa) is reported as 1200 µg/mL, the MEC (Spermatozoa [3]) is reported as 0.1% and the MEC (Spermatozoa [1]) is reported as 0.5%.

With `COc1cc(/C=C/C(=O)C2CCOC2=O)ccc1O` (stereo unspecified) the Activity (Spermatozoa [2]) was “inactive”.

In the case of `COc1cc(/C=C/C(=O)C2(CCN3CCCC3)CCOC2=O)ccc1O` (stereo unspecified), the Activity (Spermatozoa [2]) is reported as “inactive”.

`CCN(CC)CCC1(C(C)=O)CCOC1=O` (stereo unspecified) was tested, and the MEC (Spermatozoa [1]) was “inactive”.

With `CCCCCCCCCc1ccc(OCCOCCOCCOCCOCCOCCOCCOCCOCCO)cc1` [NONOXYNOL 9] the MEC (Spermatozoa [3]) was 0.02%.

With `CCN(CC)CCC1(C(=O)/C=C/c2ccc(N(C)C)cc2)CCOC1=O` (stereo unspecified) the Activity (Spermatozoa [2]) was “inactive”.

With `COc1cc(/C=C/C(=O)C2(CCCN(C)C)CCOC2=O)ccc1O.O=C(O)C(O)C(O)C(=O)O` (stereo unspecified) the IC50 (HeLa) was 269 µg/mL, the MEC (Spermatozoa [3]) was 0.05% and the inhibition (Spermatozoa [4]) was “inactive”. It also gave an MEC (Spermatozoa [1]) of 0.05%.

In the case of `CC(=O)C1(CCN2CCOCC2)CCOC1=O` (stereo unspecified), the MEC (Spermatozoa [1]) is reported as “inactive”.

In the case of `CN(C)CCCC1(C(=O)/C=C/c2ccc(O)cc2)CCOC1=O.O=C(O)C(O)C(O)C(=O)O` (stereo unspecified), the IC50 (HeLa) is reported as 661 µg/mL, the MEC (Spermatozoa [3]) is reported as 0.5% and the MEC (Spermatozoa [1]) is reported as 0.5%.

With `CC(=O)C1(CCCN(C)C)CCOC1=O` (stereo unspecified) the MEC (Spermatozoa [1]) was “inactive”.

With `O=C(/C=C/c1ccc(O)cc1)C1CCOC1=O` (stereo unspecified) the MEC (Spermatozoa [1]) was “inactive” and the Activity (Spermatozoa [2]) was “inactive”.

For `CCN(CC)CCC1(C(=O)/C=C/c2ccc(O)cc2)CCOC1=O` (stereo unspecified), the Activity (Spermatozoa [2]) was “inactive”.

For `CN(C)c1ccc(/C=C/C(=O)C2(CCN3CCCC3)CCOC2=O)cc1` (stereo unspecified), the Activity (Spermatozoa [2]) was “inactive”.
